Among the data in ChEMBL document CHEMBL1131477, “Synthesis and biological activity of a novel series of nonsteroidal, peripherally selective androgen receptor antagonists derived from 1,2-dihydropyridono[5,6-g]quinolines” (J Med Chem, 1998) are Efficacy, IC50 and Ki values, retold here.

In experiment [1] the target is T1, Progesterone receptor (Homo sapiens) (UniProt P06401).
T1 sequence (whole entry): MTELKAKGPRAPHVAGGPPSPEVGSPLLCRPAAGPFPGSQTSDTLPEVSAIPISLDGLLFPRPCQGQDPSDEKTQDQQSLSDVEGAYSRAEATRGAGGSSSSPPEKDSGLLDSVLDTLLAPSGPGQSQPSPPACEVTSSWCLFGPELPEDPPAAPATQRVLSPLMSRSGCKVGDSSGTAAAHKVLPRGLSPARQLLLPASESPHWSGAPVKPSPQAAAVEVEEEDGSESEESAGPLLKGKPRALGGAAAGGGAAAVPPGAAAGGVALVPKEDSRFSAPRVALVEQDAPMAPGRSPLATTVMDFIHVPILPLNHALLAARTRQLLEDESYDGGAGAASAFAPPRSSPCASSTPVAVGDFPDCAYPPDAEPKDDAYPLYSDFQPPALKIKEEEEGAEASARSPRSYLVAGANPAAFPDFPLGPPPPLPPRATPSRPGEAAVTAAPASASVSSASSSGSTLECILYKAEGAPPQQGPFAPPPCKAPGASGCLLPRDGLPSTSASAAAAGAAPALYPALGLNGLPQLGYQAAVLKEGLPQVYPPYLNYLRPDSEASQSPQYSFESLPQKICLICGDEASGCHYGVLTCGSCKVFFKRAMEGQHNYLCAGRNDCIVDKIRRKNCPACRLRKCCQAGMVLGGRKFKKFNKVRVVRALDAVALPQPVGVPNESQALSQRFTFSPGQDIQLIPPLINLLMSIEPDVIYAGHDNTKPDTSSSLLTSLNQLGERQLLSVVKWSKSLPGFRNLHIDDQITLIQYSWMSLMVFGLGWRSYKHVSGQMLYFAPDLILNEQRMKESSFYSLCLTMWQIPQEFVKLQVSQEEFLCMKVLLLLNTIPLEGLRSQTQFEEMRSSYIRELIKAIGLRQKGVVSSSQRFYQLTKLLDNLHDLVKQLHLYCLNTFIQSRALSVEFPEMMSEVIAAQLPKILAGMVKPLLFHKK
Description: Efficacy as a function of maximal inhibition against human progesterone receptor B (hPR-B).

In another experiment the target is T2, Progesterone receptor (Homo sapiens, UniProt P06401).
T2 sequence (P06401 whole entry): T1 sequence (whole entry)
Description: Antagonistic activity against human progesterone receptor B (hPR-B) in co-transfected CV-1 cells. It counts as functional, cell-based.

The target of experiment [2] is T3, Androgen receptor (Homo sapiens, UniProt P10275).
T3 sequence (P10275 whole entry): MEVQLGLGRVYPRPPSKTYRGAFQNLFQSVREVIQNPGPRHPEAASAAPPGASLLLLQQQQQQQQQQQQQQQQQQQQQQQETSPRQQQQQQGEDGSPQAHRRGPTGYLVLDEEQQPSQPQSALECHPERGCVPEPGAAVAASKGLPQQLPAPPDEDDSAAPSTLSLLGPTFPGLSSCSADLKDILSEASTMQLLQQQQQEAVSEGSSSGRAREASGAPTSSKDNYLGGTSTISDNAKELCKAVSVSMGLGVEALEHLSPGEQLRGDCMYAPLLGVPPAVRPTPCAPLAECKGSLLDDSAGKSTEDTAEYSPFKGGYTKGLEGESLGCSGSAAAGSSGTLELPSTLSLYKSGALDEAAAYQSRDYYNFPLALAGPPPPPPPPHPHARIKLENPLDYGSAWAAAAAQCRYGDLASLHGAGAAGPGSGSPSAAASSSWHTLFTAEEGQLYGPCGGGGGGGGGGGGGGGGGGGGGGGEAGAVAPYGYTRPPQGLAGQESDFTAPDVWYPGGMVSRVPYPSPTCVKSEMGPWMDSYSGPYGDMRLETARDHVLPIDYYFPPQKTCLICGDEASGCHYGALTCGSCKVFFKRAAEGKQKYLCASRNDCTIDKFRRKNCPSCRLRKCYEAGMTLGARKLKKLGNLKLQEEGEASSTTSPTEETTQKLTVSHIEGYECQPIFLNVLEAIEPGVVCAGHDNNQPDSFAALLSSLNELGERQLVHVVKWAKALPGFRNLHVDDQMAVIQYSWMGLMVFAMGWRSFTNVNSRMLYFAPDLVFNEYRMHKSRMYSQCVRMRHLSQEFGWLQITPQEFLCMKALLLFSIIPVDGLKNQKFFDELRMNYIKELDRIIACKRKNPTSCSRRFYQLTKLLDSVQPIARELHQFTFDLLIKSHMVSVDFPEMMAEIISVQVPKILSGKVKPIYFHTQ
Description: Antagonistic activity against human androgen receptor (hAR) in co-transfected CV-1 cells.

The target in experiment [3] is T3, Androgen receptor. Description: biochemical.
Description: Binding affinity for human androgen receptor in transiently-transfected COS-1 cells.

With `CCn1c(=O)cc(C(F)(F)F)c2cc3c(cc21)NC(C)(C)C=C3C`, the Efficacy in experiment [1] turned out to be 55%. In addition, the concentration for half-maximal inhibition (IC50) against Progesterone receptor stood at 1760 nM; on Androgen receptor [2] it was 692 nM. This molecule had an inhibition constant Ki at Androgen receptor [3] of 670 nM.

A word on the IC50: it is the point on the concentration scale where inhibition reaches its midpoint. Higher therefore signals lower potency. As usually defined, the Ki is a dissociation constant, usually derived from enzyme kinetics or from competition with a known ligand.
